Data as given in patent US20170306409A1, “CANCER PATIENT SELECTION FOR ADMINISTRATION OF WNT SIGNALING INHIBITORS USING RNF43 MUTATION STATUS” (NOVARTIS AG, priority 2012, published 2017).
pIC50: −log10 of the molar value.

Assays:
Assay type in all cases: cell-based, human
PSN-1 [1] = assay: cell line proliferation assay (Cell Titer Glo)
Experimental: (§1) The sensitivity of pancreatic cells to LGK974 treatment were tested in a cellular proliferation assay in vitro. Twenty four human pancreatic cancer cell lines were treated with or without LGK974. Cellular proliferation data was generated in 384 well format. Cells were harvested and resuspended in their appropriate growth medium at a density of 1.5×10^4 cells per mL. […] Plates were then transferred to incubators on the ACP-1 system (37° C., 5% CO2) and cells were allowed to attach overnight. […] Following compound addition, plates were returned to the incubator for 120 hours. The assay plates were read with the addition of 10 μL of 1× Cell Titer Glo (Promega G7573) according to the manufacturer's instructions. Plates were then incubated at room temperature for ten minutes and read on the integrated Perkin Elmer Viewlux (2 second exposure, 2× bin, high sensitivity). The raw data was normalized using the DMSO control wells within each plate and the curve fitting for IC50 determination was performed. Cell growth was measured five days later with Cell Titer Glo (Promega). […] As shown in TABLE 4 and Example 4, all four cell lines harbor RNF43 loss-of-function (LOF) mutations

SU8686 = assay: cell line proliferation assay (Cell Titer Glo)
Experimental: as §1

SU86.86 = assay: foci formation assay; conditions: 1 μM LGK974
Experimental: (§2) To assay foci formation, 6,000˜12,000 cells of indicated cell lines were seeded in 6 well tissue culture plate in 2 ml growth media. After overnight culture for cell attachment, media was replaced with fresh growth media containing 1 μM LGK974 in the absence and presence of recombinant Wnt3a. For DOX-inducible β-catenin shRNA experiment, cells were treated 5 ng/ml doxycycline. When cell colonies reached desirable size, cells were fixed with 4% formalin in PBS and stained with crystal violet solution. After a few washes, plates were dried and imaged.
(§3) Identification of pancreatic cancer lines containing inactivation mutation of RNF43. Discovery of LGK974, a potent and selective inhibitor of Porcupine, offered us a unique chemical tool to systemically examine Wnt dependency in a large panel of cancer cell lines. We tested LGK974 in a large panel of pancreatic cancer cell lines using foci formation assay. Foci formation assay was utilized because it is more sensitive than routine growth assays such as CellTiter-Glo, and it is less affected by the different growth rates of various cell lines.

PSN-1 [2] = assay: foci formation assay; conditions: 1 μM LGK974
Experimental: as §2, §3

Panc04.03 = assay: foci formation assay; conditions: 1 μM LGK974
Experimental: as §2, §3

Panc05.04 = assay: foci formation assay; conditions: 1 μM LGK974
Experimental: as §2, §3

L3.3 = assay: foci formation assay; conditions: 1 μM LGK974
Experimental: as §2, §3

SW1990 = assay: foci formation assay; conditions: 1 μM LGK974
Experimental: as §2, §3

PK59 = assay: foci formation assay; conditions: 1 μM LGK974
Experimental: as §2, §3

KCl-MOH1 = assay: foci formation assay; conditions: 1 μM LGK974
Experimental: as §2, §3

DanG = assay: foci formation assay; conditions: 1 μM LGK974
Experimental: as §2, §3

KP2 = assay: foci formation assay; conditions: 1 μM LGK974
Experimental: as §2, §3

KP3 = assay: foci formation assay; conditions: 1 μM LGK974
Experimental: as §2, §3

Panc03.27 = assay: foci formation assay; conditions: 1 μM LGK974
Experimental: as §2, §3

QGP-1 = assay: foci formation assay; conditions: 1 μM LGK974
Experimental: as §2, §3

T3M4 = assay: foci formation assay; conditions: 1 μM LGK974
Experimental: as §2, §3

KP4 = assay: foci formation assay; conditions: 1 μM LGK974
Experimental: as §2, §3

PaTu-8902 = assay: foci formation assay; conditions: 1 μM LGK974
Experimental: as §2, §3

CFPAC-1 = assay: foci formation assay; conditions: 1 μM LGK974
Experimental: as §2, §3

Capan-2 = assay: foci formation assay; conditions: 1 μM LGK974
Experimental: as §2, §3

KLM1 = assay: foci formation assay; conditions: 1 μM LGK974
Experimental: as §2, §3

YAPC = assay: foci formation assay; conditions: 1 μM LGK974
Experimental: as §2, §3

PaTu-8988S = assay: foci formation assay; conditions: 1 μM LGK974
Experimental: as §2, §3

MIA CaPa-2 = assay: foci formation assay; conditions: 1 μM LGK974
Experimental: as §2, §3

KP1-N = assay: foci formation assay; conditions: 1 μM LGK974
Experimental: as §2, §3

Capan-1 = assay: foci formation assay; conditions: 1 μM LGK974
Experimental: as §2, §3

HuPT4 = assay: foci formation assay; conditions: 1 μM LGK974
Experimental: as §2, §3

PANC-1 = assay: foci formation assay; conditions: 1 μM LGK974
Experimental: as §2, §3

HPAFII = assay: foci formation assay; conditions: 1 μM LGK974
Experimental: as §2, §3

PK45H = assay: foci formation assay; conditions: 1 μM LGK974
Experimental: as §2, §3

PK1 = assay: foci formation assay; conditions: 1 μM LGK974
Experimental: as §2, §3

SUIT-2 = assay: foci formation assay; conditions: 1 μM LGK974
Experimental: as §2, §3

PaTu-8988T = assay: foci formation assay; conditions: 1 μM LGK974
Experimental: as §2, §3

Panc10.05 = assay: foci formation assay; conditions: 1 μM LGK974
Experimental: as §2, §3

KP-1NL = assay: foci formation assay; conditions: 1 μM LGK974
Experimental: as §2, §3

Compound: Cc1cc(-c2ncc(CC(=O)Nc3ccc(-c4cnccn4)cn3)cc2C)ccn1 [LGK974, 2-[5-methyl-6-(2-methylpyridin-4-yl)pyridin-3-yl]-N-[5-(pyrazin-2-yl)pyridin-2-yl]acetamide]
- Inhibition fold change (1-Treated/Control) (PSN-1 [1]): 0.06
- pIC50 (PSN-1 [1]; Homo sapiens, PSN1, 120 hours, Cell Titer Glo, read-out: LGK974 IC50s in cell line proliferation assay): < 5.70
- Inhibition fold change (1-Treated/Control) (SU8686): 0.03
- pIC50 (SU8686; Homo sapiens, SU.86.86, 120 hours, Cell Titer Glo, read-out: LGK974 IC50s in cell line proliferation assay): < 5.70
- Growth inhibition in foci formation assay (SU86.86): No
- Growth inhibition in foci formation assay (PSN-1 [2]): No
- Growth inhibition in foci formation assay (Panc04.03): No
- Growth inhibition in foci formation assay (Panc05.04): No
- Growth inhibition in foci formation assay (L3.3): No
- Growth inhibition in foci formation assay (SW1990): No
- Growth inhibition in foci formation assay (PK59): No
- Growth inhibition in foci formation assay (KCl-MOH1): No
- Growth inhibition in foci formation assay (DanG): No
- Growth inhibition in foci formation assay (KP2): No
- Growth inhibition in foci formation assay (KP3): No
- Growth inhibition in foci formation assay (Panc03.27): No
- Growth inhibition in foci formation assay (QGP-1): No
- Growth inhibition in foci formation assay (T3M4): No
- Growth inhibition in foci formation assay (KP4): No
- Growth inhibition in foci formation assay (PaTu-8902): No
- Growth inhibition in foci formation assay (CFPAC-1): No
- Growth inhibition in foci formation assay (Capan-2): strong growth inhibitory activity and strongly inhibited and Yes
- Growth inhibition in foci formation assay (KLM1): No
- Growth inhibition in foci formation assay (YAPC): without significant effect and No
- Growth inhibition in foci formation assay (PaTu-8988S): strong growth inhibitory activity and strongly inhibited and Yes
- Growth inhibition in foci formation assay (MIA CaPa-2): No
- Growth inhibition in foci formation assay (KP1-N): No
- Growth inhibition in foci formation assay (Capan-1): No
- Growth inhibition in foci formation assay (HuPT4): No
- Growth inhibition in foci formation assay (PANC-1): No
- Growth inhibition in foci formation assay (HPAFII): strong growth inhibitory activity and strongly inhibited and Yes
- Growth inhibition in foci formation assay (PK45H): No
- Growth inhibition in foci formation assay (PK1): without significant effect and No
- Growth inhibition in foci formation assay (SUIT-2): No
- Growth inhibition in foci formation assay (PaTu-8988T): not sensitive and No
- Growth inhibition in foci formation assay (Panc10.05): not sensitive and No
- Growth inhibition in foci formation assay (KP-1NL): No
